What was measured:
Daudi cells [1] = assay: ADCC assay; assay type: cell-based
Method: For ADCC assay, Daudi target cell concentration was adjusted to 12.5×10^4 cells/mL with ADCC medium. 80 μL of cell suspension (1×10^4 viable cells) was added to each well of a round-bottom 96-well plate. Twenty μL of antibody, serially diluted in ADCC medium, was dispensed to each well in triplicate. […] The plate was incubated at 22-25° C. for 30 minutes. PBMC concentration was adjusted with ADCC medium so that by adding […] of PBMC cells to the target cells, the Effector: Target cell ratio were 25:1 and 50:1, respectively. The plate was centrifuged at 250×g for 4 minutes and then incubated at 37° C. 45 minutes prior to harvesting the supernatant, 20 μL of lysis solution from the CytoTox 96 kit (Promega) was added to maximum lysis control wells. After a 5 hour incubation, the plate was centrifuged at 250×g for 4 minutes. 50 μL of supernatant from each well was transfer to a clean flat-bottom 96 well assay plate. 50 μL of substrate from CytoTox 96 kit (Promega) was added to each well and mixed for 30 seconds. The plate was incubated at room temperature for 30 minutes before 50 μL of stop solution was added to each well and mixed for 30 seconds. The absorbance was read at 490 nm. For data analysis: the % lysis is calculated using GraphPad Prism 5.0 to generate the IC50, as follows: […]

Daudi cells [2] = assay: CDC assay; assay type: cell-based; settings: 10% complement
Method: For CDC assay Daudi target cells were harvested and cell concentration was adjusted to 80×10^4 cells/mL with cell culture medium. To a flat-bottom 96-well white plate, 25 μL/well of cells was added. Then, 12.5 μL/well of P1C4, Rituximab, Anti-HEL-hIgG1, and Anti-HEL-hIgG2, serially diluted in ADCC medium, were added to each well in duplicate. […] The plates were incubated in the hood for 15 minutes. Human complement, diluted with ADCC medium, was added to the plates containing cells at 12.5 μL/well to reach a final concentration of 10%. For the maximum lysis wells, 5 μL of lysis solution was added. The final volume of all the wells was adjusted to 50 μL with ADCC medium. The plates were incubated at 37° C. for 2 hours before 50 μL/well of CTG solution was added to the cells. The plates were shaken on a microplate shaker for 2 minutes at a speed of 200 and then incubated at room temperature for 10 minutes. The luminescence signal was red with Envision. For data analysis, % cytotoxicity and IC50 was calculated using GraphPad Prism 5.0 as follows: […]

Rituximab: positive control antibody in ADCC and CDC assays
ADCC IC50 (Daudi cells [1]; 25:1 E/T ratio): 0.92 ng/mL | ADCC IC50 (Daudi cells [1]; 50:1 E/T ratio): 1.19 ng/mL | CDC IC50 (Daudi cells [2]): 399 ng/mL

Reference: patent publication US11421026B2, “Antibodies that bind human cannabinoid 1 (CB1) receptor” (BIRD ROCK BIO, Inc., priority 2015, dated 2022)
